Assay results published in patent US20100254965A1, “Adenosine Signaling in Diagnosis, Treatment, and Prevention of Priapism and Erectile Dysfunction” (BOARD OF REGENTS ,THE UNIVERSITY OF TEXAS SYSTEM, priority 2006, published 2010).
Entries after “also recorded” stand apart in the source; their conditions may differ.

Legend:
[1] = system: corpus cavernosal smooth muscle cells (CCSM); test: cAMP production in primary corpus cavernosal / penile vascular smooth muscle cells (CCSM, PVSM); assay type: cell-based, mouse; conditions: 10 min
Experimental: PVSM were isolated and cultured from mouse penes. The cells were be switched to serum-free medium and treated with different concentrations of adenosine with or without A2B antagonist (MRS1706-1 μM) or A2A agonist (CGS-21680-1 μM) alone for 10 min. Then cellular extracts were collected and cAMP levels were measured using an ELISA kit. The data represent mean±SE.
Data are presented as mean±SE. *, p<0.01.
(§1) FIG. 18. Adenosine stimulated both cAMP and cGMP induction in corpus cavernosal smooth muscle cells (CCSM) via A2BR activation. (a) Adenosine receptor expression profile in purified primary CCSM. CCSM were purified from adult mouse penes. […] (b) CCSM were isolated and cultured from mouse penes. The cells were switched to serum-free medium and treated with different concentrations of adenosine with or without A2BR antagonist (MRS1706-10 μM), A2AR antagonist (ZM241385-50 nM) or A2AR agonist (CGS-21680-10 μM) alone for 10 min. Then cellular extracts were collected and cAMP levels were measured using an ELISA kit. The data represent mean±SE. *p<0.05, adenosine treated versus the untreated; **p<0.05, adenosine plus MRS1706 or ZM241385 versus the adenosine treated. (c) CCSM were isolated from penes of the wild type and A2BR-deficient mice and cultured with or without adenosine (100 μM), NECA (10 μM), a potent adenosine receptor agonist, forskolin (10 μM), an adenylyl cyclase agonist. After 10 min treatment, the cellular extracts were collected and cAMP levels were measured by using a commercial enzyme immunoassay kit (Amersham Pharmacia). N=4. *p<0.05, adenosine, forskolin and NECA treated versus the untreated control. (d) Corpus cavernosal strips (CCS) were isolated from wild type and A2BR-deficient mice and treated with different concentrations of adenosine in the presence or absence of L-NAME (100 μM) or MRS1706 (10 μM). 10 min after treatment, cellular extracts were collected and cGMP levels were measured by using a commercial enzyme immunoassay kit (Amersham Pharmacia). Data are expressed as mean±SE. *p<0.05, adenosine treated versus the control; **p<0.05, adenosine treated with MRS1706 versus the adenosine treated; ***p<0.05, CCS of A2BR-deficient mice treated with adenosine versus the CCS of wild type mice treated with adenosine. N=6-7. (e) CCSM were isolated from wild type and A2BR deficient mice and cultured with or without adenosine (100 μM), NECA (10 μM), a potent adenosine receptor agonist, forskolin (10 μM), an adenylyl cyclase agonist, or diethylamine-NONOate (DEA/NO) (10 μM). After 10 min treatment, the cellular extracts were collected and cAMP levels were measured by using a commercial enzyme immunoassay kit (Amersham Pharmacia). N=4. *p<0.05, DEA/NO treated versus to the untreated control. (f) Both cAMP and cGMP induction contribute to adenosine-mediated decreased PE-induced phosphorylation of myosin light chain (MLC). CCSM and CCS were isolated and cultured with the treatment of phenylephrine (PE-10 μM) in the presence or absence of adenosine (100 μM) or L-NAME (100 μM). 10 min after treatment, cellular extracts were isolated and western blot analysis were performed. The total MLC and phosphorylated MLC at S20 were detected by specific antibodies.
(§2) Isolation of primary corpus cavernosal smooth muscle cells (CCSM). Corpus cavernosum tissues were dissected as described above. Cavernosal tissue was washed in PBS and minced into […] pieces. Segments were incubated in 5-10 ml enzyme solutions containing 0.02% collagenase A (0.272 U/mg protein, Roche, Mannheim, Germany) and 0.5% elastase (3.73 U/mg protein, Cell system, St Katharinen, Germany) in a 75 mm flask at 37° C. for 6 hours. Enzymatic digestion was terminated by adding 10 ml DMEM supplemented with 10% fetal calf serum (FCS). […]

[2] = system: corpus cavernosal smooth muscle cells (CCSM); test: cGMP levels in primary CCSM / PVSM; assay type: cell-based, mouse; conditions: CCSM/PVSM of both wild type and A2BR deficient mice, 10 min
Text: Results for wild-type and A2B^−/− mouse were statistically significant, p<0.01.
as §1, with “After 10 min treatment, the cellular extracts were collected and cAMP levels were measured by using a commercial enzyme immunoassay kit (Amersham Pharmacia).” left out
as §2
Tissue and corpus cavernosum smooth muscle cell (CCSM) cAMP and cGMP measurement. Quantitative assays for cAMP and cGMP were performed by using a commercial enzyme immunoassay kit (Amersham Pharmacia). […]

[3] = system: corpus cavernosal strips (CCS); test: Adenosine-induced relaxation of corpus cavernosal strips (CCS); assay type: cell-based, mouse; conditions: CCS of wild type mice, DCF 5 μM or 0-100 uM with adenosine 100 μM; listed as DCF
Experimental: FIG. 16. […] CCS of wild type mice were treated with different concentrations of adenosine with or without DCF (5 μM), a specific inhibitor of adenosine deaminase. Then the extent (mN) of force was monitored. (b) CCS of wild type mice were treated with 100 μM adenosine in the presence of different concentrations of DCF (0-100 uM). Then the extent of force was measured. Data are expressed as mean±SE. *p<0.05, adenosine treated versus the control, **p<0.05, DCF treated versus the adenosine treated.
FIG. 17. A2BR signaling is required for adenosine-mediated corpus cavernosal strips (CCS) relaxation. (a) CCS of wild type mice were treated with different concentrations of theophiline (1-10 μM) in the presence or absence of adenosine (100 μM). The force changes were measured by force transducer. Data are expressed as mean±SE. *p<0.05, adenosine treated versus the control, **p<0.05, theophiline treated versus the untreated, N=5. (b) CCS from wild type, A2AR, A1R A2BR and A3R-deficient mice were treated with different concentrations of adenosine. The relaxation was measured by force transducer. Data are expressed as mean±SE. *p<0.05, adenosine treated versus the wild type. (c) CCS were isolated from wild type and A2BR-deficient mice and treated with different concentrations of adenosine in the presence or absence of L-NAME (100 μM) or MRS1706 (10 μM). 10 min after treatment, cellular extracts were collected and cAMP levels were measured by using a commercial enzyme immunoassay kit (Amersham Pharmacia). Data are expressed as mean±SE. *p<0.05, adenosine treated versus the control without treatment; **p<0.05, adenosine treated with MRS1706 versus the adenosine treated alone; ***p<0.05, CCS of A2BR-deficient mice treated with adenosine versus the CCS of wild type mice treated with adenosine. N=6-7. (d) CCS of A2BR and ADA double deficient mice lost the hypersensitivity to nerve stimulation compared to ADA deficient mice.
Function experiments. The tunica albuginea was cut longitudinally, starting at the most proximal point of the corpus cavernosum (CC) toward the penile shaft, and the erectile tissue was partially dissected free from the tunica. One strip of tissue (0.3×0.3×3 mm) was obtained from each corpus cavernosum. The contractility of each isolated corpus cavernosum smooth muscle cells (CCSM) strip was measured using an isometric force transducer (AD Instrument Inc., Georgia, Vt., USA). The strip was mounted in a thermostatically controlled tissue bath containing aerated PSS (mM: 119 NaCl, 4.7 KCl, 24 NaHCO 3, 1.2 KH2PO4, 2.5 CaCl2, 1.2 MgSO4, 0.023 EDTA, and 11 glucose; 5 ml volume, 95% O2 and 5% CO2, 37° C.) and stretched to a resting tension of 0.1 mN. The contractile responses of the strips were analysed by adding 10 μM phenylephrine to the bath, and force changes were recorded in response to drug application and to electrical field stimulation. The particular electrical field stimulation parameters of 0-30V, 30 HZ with a pulse width of approximately 0.5 ms, are commonly used in the mice. […] The changes of cAMP and cGMP contents in CC strips were subsequently measured by commercial enzyme immunoassay kit (Amersham Pharmacia) (see below).

[4] = system: corpus cavernosum of wild type, A2A-deficient and A2B-deficient mice; test: Intracavernous injection of adenosine: intracavernous pressure (ICP) and penile erection; assay type: in vivo, mouse; conditions: wild type mice
Experimental: FIG. 6. Different amounts of adenosine were injected into the corpus cavernosum of wild type, adenosine receptor A2A-deficient, and adenosine receptor A2B-deficient mice and the resulting change in ICP determined.
Methods: ADA-deficient mice and SCD transgenic mice, a well accepted priapism animal model, are the only animals known in which a persistent and prolonged penile erection occurs spontaneously. […] We have measured intracavernosal pressure and corpus cavernosal strip (CCS) relaxation with or without PEG-ADA treatment and/or a series of adenosine receptor antagonists or agonists in wild type ADA-deficient mice, and corpus cavernosal strip (CCS) relaxation with or without PEG-ADA treatment and/or a series of adenosine receptor antagonists or agonists in SCD transgenic mice, in response to nerve stimulation. We have also measured the intracavernosal pressure and CCS relaxation with or without adenosine treatment in wild type and multiple adenosine receptor deficient mice.

[5] = wild type CCSM/PVSM, agent alone

`CCNC(=O)[C@H]1O[C@@H](n2cnc3c(N)nc(NCCc4ccc(CCC(=O)O)cc4)nc32)[C@H](O)[C@@H]1O` [CGS21690C] was tested, and the cAMP production [1, 5] was “failed to induce cAMP production”.

In the case of `CCNC(=O)[C@H]1O[C@@H](n2cnc3c(N)ncnc32)[C@H](O)[C@@H]1O` [NECA, 5′-N-ethylcarbosamide adenosine], the cGMP levels [2] is reported as “lack of significant differences in cGMP production; also recorded: had no effect”, the cAMP production ([1]; CCSM/PVSM of A2BR deficient (A2B-/-) mice) is reported as “essentially no effect on cAMP levels; also recorded: failed to induce cAMP production” and the cAMP production [1, 5] is reported as “elevate cAMP levels; also recorded: induced cAMP”.

With `CCN(CC)/[N+]([O-])=N/O.CCNCC` [DEA/NO, diethylamine-NONOate] the cGMP levels [2] was “induced cGMP production” and the cGMP levels ([2]; listed as diethylamine-NONOate) was “comparable high levels of cGMP production”.

In the case of `OC[C@H]1O[C@@H](n2cnc3c2NC=NC[C@H]3O)C[C@@H]1O` [deoxycoformycin], the “adenosine-induced CCS relaxation with ADA inhibitor versus adenosine alone” value [3] is reported as “significantly increased relaxation compared with adenosine alone; also recorded: increased the adenosine induced relaxation of CCS”, the “adenosine-induced penile erection with ADA inhibitor” value ([4]; co-injected with adenosine) is reported as “prolonged” and the “adenosine-induced increase in pressure (ICP) with ADA inhibitor” value ([4]; coinjection with adenosine) is reported as “prolonged the adenosine-induced increase in pressure”.
